Patent US8173598B2, “Myeloid protein activation of anti-inflammatory and anti-hypoxic pathway” (The Board of Trustees of the University of Illinois, priority 2008, dated 2012)
No end group written: not given here. *: point of attachment. Palmitoyl = CCCCCCCCCCCCCCCC(=O)*

T1: PAR-4 (Homo sapiens, UniProt Q96RI0)
T1 construct: host or cells: Chem-1 cells
T1 sequence (Q96RI0 18-385): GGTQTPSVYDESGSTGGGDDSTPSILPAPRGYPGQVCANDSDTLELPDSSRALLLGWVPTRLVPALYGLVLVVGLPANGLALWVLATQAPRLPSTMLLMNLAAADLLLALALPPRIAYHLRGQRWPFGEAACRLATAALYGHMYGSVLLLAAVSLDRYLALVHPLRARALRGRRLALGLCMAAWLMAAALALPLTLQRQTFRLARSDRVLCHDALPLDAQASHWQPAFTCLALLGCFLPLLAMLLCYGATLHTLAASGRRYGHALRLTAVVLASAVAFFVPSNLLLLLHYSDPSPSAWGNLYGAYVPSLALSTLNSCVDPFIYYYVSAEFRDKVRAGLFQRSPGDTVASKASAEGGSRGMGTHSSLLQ


What was measured:
[1] = tested on: Human peripheral neutrophils; experiment: Spontaneous oxidative activation of neutrophils (DCFH-DA oxidation); assay type: cell-based; settings: for rate of spontaneous oxidation of the DCFH-DA probe: 2.5 to 10 μg/ml of protein, followed over time, p <0.001 to <0.05; for oxidative metabolism (fluorescence emission of DCFH-DA probe): 1 h time point, all concentrations tested, P<0.05 compared to control
Source text: (§1) Human peripheral neutrophils were isolated from heparinized blood donated by healthy volunteers according to a protocol approved by the University of Illinois Institutional Review Board. The cells were isolated using a Histopaque™ gradient (Sigma) according to the manufacturer's instructions. Cell viability and identity was confirmed by trypan blue staining. Live cells and neutrophils represented at least 95% of isolated leukocytes.
(§2) The method for the measurement of oxidative activation of neutrophils was based on the ROS-dependent oxidation of DCFH-DA to DCF and was adapted from Ciapetti et al. DCFH-DA crosses the cell membrane and is hydrolyzed by nonspecific esterases to nonfluorescent DCFH. Its oxidation by ROS results in the generation of highly fluorescent DCF [30]. DCFH-DA is therefore a widely accepted probe for the measurement of an overall index of oxidative activity. DCFH-DA was purchased from Calbiochem (Madison, Wis.). The assays were run in clear bottom black 96-well plate. “Edge effects” (a higher fluorescence in edge wells) were avoided by using only center wells. Briefly, 50 μl of Dulbecco's Phosphate Buffered Saline (DPBS) containing DCFH-DA was added to each well with the final concentration of […]. S100 proteins or PKC inhibitors were diluted in the wells. Just before a baseline reading 100,000 neutrophils in 50 μl PBS were placed in each well. 96-well plates were incubated at 37° C. and 5% CO2 and were read at baseline (immediately after cell addition to the plates) and at indicated time points in a Spectra Max Gemini XS fluorescent plate reader. The excitation wavelength was 485 and the reading was done at 530 nm. Wells with no DCFH-DA were used to measure background fluorescence which was subtracted from each reading. Controls with no cells were also analyzed and display no increased fluorescence over time. All assays were conducted in triplicate or quadruplicate wells.
In order to avoid differences between donors, experimental procedures and plate to plate variation, all experimental conditions and statistical analysis were run within one plate inclusive of all positive and negative controls. Single sample t-tests were calculated to test the S100A8, S100A9 and combined proteins in comparison to the control wells with alpha set to ≦0.05 to determine statistical significance. Comparisons between the S100A8, S100A9 and combined proteins were calculated with two sample t-tests using SPSS (SPSS Inc., Chicago, Ill.) with alpha set to ≦0.05 to determine statistical relevance.

[2] = tested on: Human peripheral neutrophils; experiment: PAR-4 activating peptide enhanced neutrophil oxidative metabolism (DCFH-DA oxidation); assay type: cell-based; settings: P4pal-i1 with PAR-4 activating peptide (FIG. 6A)
Source text: as §1
The method for the measurement of oxidative activation of neutrophils was based on the ROS-dependent oxidation of DCFH-DA to DCF and was adapted from Ciapetti et al. DCFH-DA crosses the cell membrane and is hydrolyzed by nonspecific esterases to nonfluorescent DCFH. […] “Edge effects” (a higher fluorescence in edge wells) were avoided by using only center wells. […] Just before a baseline reading 100,000 neutrophils in 50 μl PBS were placed in each well. 96-well plates were incubated at 37° C. and 5% CO2 and were read at baseline (immediately after cell addition to the plates) and at indicated time points in a Spectra Max Gemini XS fluorescent plate reader. The excitation wavelength was 485 and the reading was done at 530 nm. Wells with no DCFH-DA were used to measure background fluorescence which was subtracted from each reading. Controls with no cells were also analyzed and display no increased fluorescence over time. […]

[3] = target: T1, PAR-4; experiment: Calcium flux and desensitization to thrombin in PAR-4 expressing Chem.-1 cells; assay type: cell-based; settings: for calcium flux in PAR-4 expressing cells: data not shown; for desensitization of PAR-4 expressing cells to thrombin activation: previous treatment with different concentrations, then 10 nM thrombin
Protocol: (§3) Screening for S100A8 and S100A9 activity on thrombin receptors including thrombin receptor desensitization were conducted with calcium flux assays in Chem 3 and PAR-4 expressing Chem.-1 cells by Millipore's GPCRProfiler(R) Service (Millipore, St. Charles, Mo.; see website Millipore website on the internet).

[4] = tested on: thrombin receptors; experiment: Calcium flux and thrombin-S100A8/A9 cross-desensitization in Chem-3 cells; assay type: cell-based; settings: each alone
Protocol: as §3

[5] = tested on: Human peripheral neutrophils; experiment: PMA induced activation of neutrophil oxidative metabolism (DCFH-DA oxidation); assay type: cell-based; settings: for PMA activation of neutrophils: dose dependent
Source text: as §1, §2

[6] = tested on: Human peripheral neutrophils; experiment: LPS stimulated neutrophil oxidative metabolism (DCFH-DA oxidation); assay type: cell-based; settings: for LPS stimulation of neutrophil oxidative activity: 2.5 to 10 μg/ml of protein, LPS 10 μg/ml
Source text: as §1, §2

[7] = tested on: neutrophils; settings: in-vitro; Sroussi et al., 2006, 2007; cited from earlier work
[8] = tested on: excisional cutaneous wounds; experiment: Wound closure in the SKH-1 restraint stress model; assay type: in vivo, SKH-1 mice; settings: restraint stressed (RST) mice; single local treatment immediately after wounding
Source text: This protocol was approved by the Committee on Animal Research at the University of Illinois at Chicago. Virus antibody-free, female SKH-1 mice, 5-6 weeks of age, were purchased from Charles River, Inc (Wilmington, Mass.). The animals were allowed to acclimate to the animal facility for at least one week prior to experimental procedures.
The restraint stress protocol is based on established procedures (Gajendrareddy et al., 2005; Mercado et al., 2002; Padgett et al., 1998). Restraint was initiated 3 days before wounding. Restraint stress (RST) in this model consists of confinement of mice within loosely fitting, well-ventilated 50 ml conical tubes for a period of 12-14 hours during their active nocturnal cycle. Animals were subjected to restraint for an additional five cycles on the day of wounding and for four days thereafter, then stress was discontinued.
For excisional wounds, mice were anesthetized with a single 0.25 ml intraperitoneal injection of Ketaset solution (Aveco, Fort Dodge, Iowa) at a concentration of 7.8 mg/ml, plus Rompum (Haver-Lockhart, Shawnee, Kans.) at 0.44 mg/ml. Each animal received two standardized circular cutaneous wounds with 3.5 mm punch (Miltex Instrument Company), placed just behind the shoulder blades with a biopsy punch.
For treatment of wounds, S100A8 and mutant ala^42S100A8 were produced, cleaved and purified from a GST fusion construct as previously described (Tugizov et al., 2005) (Sroussi et al., 2006). The endotoxin levels in the recombinant protein preparations were below 1 ng/μg of proteins as measured by the Limulus amoebocyte lysate assay (LAL) (Associates of Cape Cod, Falmouth, Mass.). Solutions of S100 proteins at a concentration of 1 μg/ml were used for those experiments. Introduction of S100A8 protein or control saline vehicle were conducted through local injection intradermally of 25 μl solution in the tissue surrounding the wounds with the help of Micro-Fine IV syringes 28G1/2 (Becton Dickinson, Franklin Lakes, N.J.). Careful wound manipulation ensured no direct disruption of the wound site. An additional 10 μl solution was applied directly to the wounds.
Measurement of Wound Sizes was done as follows. Beginning on the day of wounding (day 0), each animal's wounds were photographed daily until day 5 post-wounding. Photographs of the wound were obtained with a standard-sized dot placed next to the site. Digitized photographs were analyzed using photoplanimetry (Marucha et al., 1998). An investigator blinded to treatment group and day of photograph measured wound size. Wound size was expressed as the percentage of the wound area determined on every post-wounding day, compared with the original wound area.

[9] = 0.01 mU/ml ADA1, S100 proteins 10 to 2.5 μg/ml

Molecule | calcium flux in PAR-4 expressing cells [3] | desensitization of PAR-4 expressing cells to thrombin activation [3] | rate of spontaneous oxidation of the DCFH-DA probe [1] | oxidative metabolism (fluorescence emission of DCFH-DA probe) [1] | calcium flux in Chem-3 cells [4] | PMA activation of neutrophils [5] | LPS stimulation of neutrophil oxidative activity [6] | neutrophil chemotaxis toward bacterial products (formylated peptides) [7] | further results
C15H31CONH-ATGAPRLPST (Palmitoyl-ATGAPRLPST) [P4pal-i1, reference compound] | – | – | – | – | – | – | – | – | spontaneous oxidative metabolic activity ([1]; 2.5 μM P4pal-i1): spontaneous oxidative metabolic activity was reduced; effect on S100A8, S100A9 and calprotectin inhibition of spontaneous oxidative metabolic activity ([1]; P4pal-i1 with S100 proteins (FIG. 6B)): blocked the ability of S100A8, S100A9 and calprotectin (S100A8/A9 in combination) to inhibit the spontaneous oxidative metabolic activity of neutrophils; PAR-4 activating peptide enhancement of oxidative metabolism [2]: blocked the ability of the PAR-4 activating peptide to enhance oxidative metabolism
S100A9: recombinant human S100A9 calcium binding protein, expressed in Escherichia coli as GST fusion, GST tag cleaved | activated calcium flux in those cells | dose dependently desensitized PAR-4 expressing cells to thrombin activation | reduced the rate at which spontaneous oxidation of the DCFH-DA probe occurred in a dose dependent manner | significantly inhibited oxidative metabolism at all concentrations tested | trigger calcium flux in Chem-3 cells in a dose dependent manner | produced a dose dependent inhibition of PMA activation of neutrophils | strongly inhibited LPS stimulation of neutrophil oxidative activity | inhibit neutrophil chemotaxis toward bacterial products | –
S100A8: recombinant human S100A8 calcium binding protein, expressed in Escherichia coli as GST fusion, GST tag cleaved | activated calcium flux in those cells | dose dependently desensitized PAR-4 expressing cells to thrombin activation | reduced the rate at which spontaneous oxidation of the DCFH-DA probe occurred in a dose dependent manner | significantly inhibited oxidative metabolism at all concentrations tested | trigger calcium flux in Chem-3 cells in a dose dependent manner | produced a dose dependent inhibition of PMA activation of neutrophils | strongly inhibited LPS stimulation of neutrophil oxidative activity | inhibit neutrophil chemotaxis toward bacterial products | oxidative activation of neutrophils ([1]; 5, 2.5 and 1.25 μg/ml, p<0.05): inhibited the oxidative activation of neutrophils; oxidative activation of neutrophils, protein first boiled ([1]; same concentrations (5, 2.5, 1.25 μg/ml), protein boiled for 5 minutes): did not significantly affect the neutrophils; wound closure rate in stressed animals [8]: partial acceleration in wound closure rate in stressed animals
CN(C)CCCn1cc(C2=C(c3c[nH]c4ccccc34)C(=O)NC2=O)c2ccccc21 [GFX, Bisindolylmaleimide I, reference compound] | – | – | – | – | – | – | – | – | spontaneous activation of neutrophils oxidative metabolism ([1]; 5 μM GFX): significantly inhibited both the PMA induced and the spontaneous activation of neutrophils oxidative metabolism; PMA induced activation of neutrophils oxidative metabolism ([5]; 5 μM GFX, 1 μM PMA): significantly inhibited both the PMA induced and the spontaneous activation of neutrophils oxidative metabolism
ADA1: Human adenosine deaminase from human erythrocytes; deaminates adenosine to inosine (protein, UniProt P00813 2-363, looked up) Adenosine deaminase: AQTPAFDKPKVELHVHLDGSIKPETILYYGRRRGIALPANTAEGLLNVIGMDKPLTLPDFLAKFDYYMPAIAGCREAIKRIAYEFVEMKAKEGVVYVEVRYSPHLLANSKVEPIPWNQAEGDLTPDEVVALVGQGLQEGERDFGVKARSILCCMRHQPNWSPKVVELCKKYQQQTVVAIDLAGDETIPGSSLLPGHVQAYQEAVKSGIHRTVHAGEVGSAEVVKEAVDILKTERLGHGYHTLEDQALYNRLRQENMHFEICPWSSYLTGAWKPDTEHAVIRLKNDQANYSLNTDDPLIFKSTLDTDYQMTKRDMGFTEEEFKRLNINAAKSSFLPEDEKRELLDLLYKAYGMPPSASAGQNL | – | – | – | – | – | – | – | – | effect on S100A8/S100A9 inhibition of spontaneous oxidative metabolism [1, 9]: partially or fully abrogated; effect on S100A8/S100A9 inhibition of LPS stimulated oxidative metabolism [6, 9]: partially or fully abrogated
